Test results from article PMC7699745, “The Search for New Anticonvulsants in a Group of (2,5-Dioxopyrrolidin-1-yl)(phenyl)Acetamides with Hybrid Structure—Synthesis and In Vivo/In Vitro Studies” (International Journal of Molecular Sciences, 2020).
Read-outs that look alike come from different tables or passages of the source.

Key:
Potassium channel (hERG) = biological target: T1, Potassium channel (hERG) (Homo sapiens, UniProt Q12809); test: Binding, potassium channel (hERG); settings: 100 µM; human recombinant (HEK-293 cells)
T1 construct: Eurofins (Poitiers, France), contract assay
Protocol: (§1) Taking into consideration the structural similarities of molecules described in the current manuscript with their chemical prototypes AS-1 and DK-1, the binding studies toward aforementioned molecular targets were performed commercially for several active substances from each subseries (3, 4, 21, 24, 25, 27, 29, and 30). Furthermore, we also tested two other and well-known targets for AEDs, namely, the Cav2.2 (N-type) calcium channel and gamma-aminobutyric acid (GABA)-A receptor. With the aim of excluding potentially dangerous proarrhythmic properties for each compound, their interaction with the potassium (hERG) channel was also tested.
(§2) Binding studies were carried out commercially in Eurofines Laboratories (Poitiers, France). The functional assays were performed in Eurofins Panlabs Discovery Services Taiwan, Ltd. (New Taipei City, Taiwan). All procedures are described elsewhere (for details, see Table S4 in Supplementary Materials).
(§3) Binding studies were carried out commercially in Eurofines Laboratories (Poitiers, France). The
(§4) functional assays were performed in Eurofins Panlabs Discovery Services Taiwan, Ltd. (New Taipei
(§5) City, Taiwan). All procedures are described elsewhere (Table S4).
(§6) Table S4. In vitro binding and functional assays.
(§7) GABA-A receptor (α1,β2,γ2)
(§8) Potassium channel (hERG) 14
(§9) Cav1.2 (h) calcium ion channel cell based antagonist calcium flux assay 16,17

Cav1.2 channel = biological target: T2, Cav1.2 channel (Rattus norvegicus, UniProt P22002); test: Radioligand binding, Cav1.2 channel; parameters: inhibition: dose or concentration left out as unconfirmed; settings: for inhibition: rat cerebral cortex, read-out: % Inhibition of Control Specific Binding, Cav1.2 Channel (Antagonist Radioligand); for binding to voltage-gated calcium channels Cav1.2: concentration of 10 µM
T2 construct: tissue Eurofins (Poitiers, France), contract assay; host or cells: rat cerebral cortex (own knowledge of the vendor's assay)
Protocol: as §1, §2, §3, §4, §5, §6, §7, §8, §9

MES seizures, mice [1] = test: Maximal electroshock (MES) seizure test; type: in vivo; settings: Mus musculus, ip; for responders at 100 mg/kg: 0.5 h, i.p.; for ED50: at TPE (0.5 h; LTG 1.0 h), 95% confidence intervals in parentheses
[2] = tested on: motor coordination of mice; test: Rotarod test for acute neurological toxicity; settings: for impairment of motor coordination of mice: doses as high as 300 mg/kg; for Rotarod test, number of mice / number of mice tested: i.p., 100 mg/kg, 0.5 h
[3] = Rotarod test for acute neurological toxicity; settings: mouse, in vivo, ip
Cav2.2 channel = biological target: T3, Cav2.2 channel (Rattus norvegicus, UniProt Q02294); test: Radioligand binding, Cav2.2 channel; parameters: dose or concentration left out as unconfirmed; settings: rat cerebral cortex; read-out: % Inhibition of Control Specific Binding, Cav2.2 Channel (Antagonist Radioligand)
T3 construct: tissue Eurofins (Poitiers, France), contract assay; host or cells: rat cerebral cortex (own knowledge of the vendor's assay)
Protocol: as §1, §2, §3, §4, §5, §6, §7, §8, §9

Na+ channel (site 2) = test: Radioligand binding, Na+ channel (site 2); settings: 10 µM; rat cerebral cortex
Protocol: as §1, §2, §3, §4, §5
(§10) Table S4. In vitro binding and functional assays. […]

[4] = biological target: T4, Cav1.2 (h) calcium ion channel (Homo sapiens, UniProt Q13936); test: Cav1.2 (h) cell-based antagonist calcium flux assay; settings: for inhibition at 10 µM: HEK293, human recombinant (HEK-293 cells), read-out: % Inhibition of Control Agonist Response, Cav1.2 (h) calcium flux; for antagonist properties in cell-based flux studies (Cav1.2): 10 µM
T4 construct: host or cells: HEK-293
Protocol: as §2, §3, §4, §5, §10, §9

[5] = biological target: T5, GABA-A receptor (α1,β2,γ2) (Homo sapiens, UniProt P14867+P47870); test: Radioligand binding, GABA-A receptor; parameters: dose or concentration left out as unconfirmed; settings: rat cerebral cortex; read-out: % Inhibition of Control Specific Binding, GABA-A Receptor (α1,β2,γ2) (Agonist Radioligand)
T5 construct: Eurofins (Poitiers, France), contract assay
Protocol: as §1, §2, §3, §4, §5, §6, §7, §8, §9

[6] = tested on: 6 Hz (32 mA) seizures, mice; test: Psychomotor 6 Hz (32 mA) seizure model; type: in vivo; settings: for responders at 100 mg/kg / ED50: Mus musculus, ip; for responders at 100 mg/kg: 0.5 h, read-out: 6 Hz (32 mA) test, number of mice protected / number of mice tested (converted); for ED50: at TPE (0.5 h; LTG 1.0 h), 95% confidence intervals in parentheses
CYP2C9 = CYP2C9 (Homo sapiens, UniProt P11712); test: Luminescent CYP2C9 P450-Glo assay
CYP3A4 = biological target: T6, CYP3A4 (Homo sapiens, UniProt P08684); test: Luminescent CYP3A4 P450-Glo assay; type: in vitro ADME; settings: 1 µM
T6 construct: purchased Promega (Madison, WI, USA)

[7] = Metabolic stability in human liver microsomes; type: in vitro ADME; settings: 120 min incubation with HLMs
Text: Human liver microsomes (HLMs) were used for metabolic stability determination. Moreover, the most probable phase I reactions and structures of metabolites were proposed according to ion fragment analyses with the in silico support of MetaSite 6.0.1 software. […] On the other hand, an excellent metabolic stability of compound 24 was observed. Less than 4% of this derivative was converted into double-hydroxylated metabolite M1 (Figures S3, S4, and S7, Supplementary Materials). Finally, two monohydroxylated metabolites (M1, M2) were found in the reaction mixture with HLMs and 30, and around 17% of this compound was metabolized (Figures S5–S7, Supplementary Materials).
These assays were performed on human liver microsomes (HLMs), purchased from Sigma-Aldrich (St. Louis, MO, USA), according to [14].

[8] = Parallel artificial membrane permeability assay (PAMPA)
Protocol: (§11) Passive diffusion was tested in the parallel artificial membrane permeability assay (PAMPA) and expressed as the permeability coefficient (Pe). A highly permeable compound, caffeine (CFN), and a poorly permeable compound, norfloxacin (NFX), were used as the references.
(§12) Precoated PAMPA Plate System Gentest™ was provided by Corning, (Tewksbury, MA, USA).

PTZ seizures, mice = settings: known AED, background statement; cited from earlier work
[9] = tested on: 6 Hz (32 mA) seizures, mice; settings: known AED, background statement; cited from earlier work
MES seizures, mice [10] = settings: known AED, background statement; cited from earlier work
in vivo = settings: mouse, ip
in vitro = settings: PAMPA
Protocol: as §11, §12

[11] = groups of four, read-out: protection in the MES test
[12] = read-out: MES test, number of mice protected / number of mice tested (converted)

T3 sequence (Q02294 whole entry): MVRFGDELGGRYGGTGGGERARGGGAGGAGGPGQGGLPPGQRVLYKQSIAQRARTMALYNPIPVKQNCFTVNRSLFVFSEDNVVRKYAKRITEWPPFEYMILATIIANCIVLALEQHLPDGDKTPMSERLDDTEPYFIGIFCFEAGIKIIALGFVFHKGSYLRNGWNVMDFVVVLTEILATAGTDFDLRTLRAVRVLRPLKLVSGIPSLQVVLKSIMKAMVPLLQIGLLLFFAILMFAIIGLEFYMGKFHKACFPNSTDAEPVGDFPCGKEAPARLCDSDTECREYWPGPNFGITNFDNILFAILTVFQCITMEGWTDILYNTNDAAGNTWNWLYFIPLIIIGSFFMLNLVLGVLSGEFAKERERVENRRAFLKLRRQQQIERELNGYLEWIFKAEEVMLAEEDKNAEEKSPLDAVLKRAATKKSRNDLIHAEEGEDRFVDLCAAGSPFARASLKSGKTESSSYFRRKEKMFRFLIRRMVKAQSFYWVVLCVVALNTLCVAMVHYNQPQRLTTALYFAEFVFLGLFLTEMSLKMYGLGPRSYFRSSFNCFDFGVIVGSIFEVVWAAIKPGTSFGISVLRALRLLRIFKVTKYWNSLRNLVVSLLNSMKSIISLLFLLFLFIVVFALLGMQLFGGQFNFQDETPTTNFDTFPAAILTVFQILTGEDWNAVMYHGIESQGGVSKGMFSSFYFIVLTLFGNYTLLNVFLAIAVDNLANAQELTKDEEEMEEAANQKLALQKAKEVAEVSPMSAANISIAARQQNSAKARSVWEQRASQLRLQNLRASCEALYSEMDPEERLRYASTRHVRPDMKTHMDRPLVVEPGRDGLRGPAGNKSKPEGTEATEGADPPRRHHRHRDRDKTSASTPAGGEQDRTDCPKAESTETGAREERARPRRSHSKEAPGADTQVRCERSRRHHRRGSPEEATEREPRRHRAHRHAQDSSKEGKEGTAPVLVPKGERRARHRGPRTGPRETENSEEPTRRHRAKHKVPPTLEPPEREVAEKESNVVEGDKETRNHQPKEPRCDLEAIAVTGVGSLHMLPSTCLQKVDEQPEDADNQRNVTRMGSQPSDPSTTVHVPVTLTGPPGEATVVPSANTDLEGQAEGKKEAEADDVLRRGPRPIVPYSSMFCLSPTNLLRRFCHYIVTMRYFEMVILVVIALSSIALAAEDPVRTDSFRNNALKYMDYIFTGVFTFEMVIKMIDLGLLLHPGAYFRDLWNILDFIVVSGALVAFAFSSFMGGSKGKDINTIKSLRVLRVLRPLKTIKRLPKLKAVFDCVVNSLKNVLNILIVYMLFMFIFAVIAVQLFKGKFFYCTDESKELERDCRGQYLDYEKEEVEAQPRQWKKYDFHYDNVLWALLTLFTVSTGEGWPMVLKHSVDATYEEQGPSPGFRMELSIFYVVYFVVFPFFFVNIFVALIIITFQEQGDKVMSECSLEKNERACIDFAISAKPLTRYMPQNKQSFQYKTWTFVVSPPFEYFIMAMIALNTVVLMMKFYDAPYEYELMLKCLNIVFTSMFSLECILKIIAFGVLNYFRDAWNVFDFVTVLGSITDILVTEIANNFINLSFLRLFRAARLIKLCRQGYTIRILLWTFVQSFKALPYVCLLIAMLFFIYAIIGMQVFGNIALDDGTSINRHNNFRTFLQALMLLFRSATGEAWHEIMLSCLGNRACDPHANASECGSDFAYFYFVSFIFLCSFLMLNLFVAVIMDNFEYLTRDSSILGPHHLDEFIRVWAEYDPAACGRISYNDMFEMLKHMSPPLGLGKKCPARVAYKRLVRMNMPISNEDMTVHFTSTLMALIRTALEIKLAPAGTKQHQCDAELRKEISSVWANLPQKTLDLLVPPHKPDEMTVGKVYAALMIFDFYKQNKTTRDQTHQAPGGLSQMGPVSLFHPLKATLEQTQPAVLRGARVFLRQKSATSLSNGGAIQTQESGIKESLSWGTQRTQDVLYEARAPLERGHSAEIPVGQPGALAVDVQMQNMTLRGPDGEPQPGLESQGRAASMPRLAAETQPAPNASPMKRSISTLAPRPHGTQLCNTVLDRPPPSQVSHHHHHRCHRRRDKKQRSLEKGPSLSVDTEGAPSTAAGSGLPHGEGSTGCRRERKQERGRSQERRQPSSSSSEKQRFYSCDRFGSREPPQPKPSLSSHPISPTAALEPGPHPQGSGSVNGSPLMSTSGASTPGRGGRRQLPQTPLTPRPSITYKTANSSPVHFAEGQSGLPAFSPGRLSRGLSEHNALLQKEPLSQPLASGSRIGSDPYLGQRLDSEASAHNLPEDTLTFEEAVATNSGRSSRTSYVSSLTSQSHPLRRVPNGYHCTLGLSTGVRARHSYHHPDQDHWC
T3 sequence (P54287 whole entry partner): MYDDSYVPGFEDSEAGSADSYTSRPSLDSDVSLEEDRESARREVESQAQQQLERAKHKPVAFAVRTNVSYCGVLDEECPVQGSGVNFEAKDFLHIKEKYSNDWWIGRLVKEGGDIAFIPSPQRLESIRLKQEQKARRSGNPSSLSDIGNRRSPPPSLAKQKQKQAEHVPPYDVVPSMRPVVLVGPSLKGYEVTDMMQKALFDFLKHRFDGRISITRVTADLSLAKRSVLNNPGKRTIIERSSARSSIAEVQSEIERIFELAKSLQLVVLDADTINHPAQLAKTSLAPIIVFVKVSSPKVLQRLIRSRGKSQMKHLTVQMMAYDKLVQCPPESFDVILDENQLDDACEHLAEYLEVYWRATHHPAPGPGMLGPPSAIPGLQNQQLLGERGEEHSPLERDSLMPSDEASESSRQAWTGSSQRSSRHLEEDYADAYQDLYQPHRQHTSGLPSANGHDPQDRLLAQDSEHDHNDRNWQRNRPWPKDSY
T3 sequence (P54290 25-944 partner limits assumed): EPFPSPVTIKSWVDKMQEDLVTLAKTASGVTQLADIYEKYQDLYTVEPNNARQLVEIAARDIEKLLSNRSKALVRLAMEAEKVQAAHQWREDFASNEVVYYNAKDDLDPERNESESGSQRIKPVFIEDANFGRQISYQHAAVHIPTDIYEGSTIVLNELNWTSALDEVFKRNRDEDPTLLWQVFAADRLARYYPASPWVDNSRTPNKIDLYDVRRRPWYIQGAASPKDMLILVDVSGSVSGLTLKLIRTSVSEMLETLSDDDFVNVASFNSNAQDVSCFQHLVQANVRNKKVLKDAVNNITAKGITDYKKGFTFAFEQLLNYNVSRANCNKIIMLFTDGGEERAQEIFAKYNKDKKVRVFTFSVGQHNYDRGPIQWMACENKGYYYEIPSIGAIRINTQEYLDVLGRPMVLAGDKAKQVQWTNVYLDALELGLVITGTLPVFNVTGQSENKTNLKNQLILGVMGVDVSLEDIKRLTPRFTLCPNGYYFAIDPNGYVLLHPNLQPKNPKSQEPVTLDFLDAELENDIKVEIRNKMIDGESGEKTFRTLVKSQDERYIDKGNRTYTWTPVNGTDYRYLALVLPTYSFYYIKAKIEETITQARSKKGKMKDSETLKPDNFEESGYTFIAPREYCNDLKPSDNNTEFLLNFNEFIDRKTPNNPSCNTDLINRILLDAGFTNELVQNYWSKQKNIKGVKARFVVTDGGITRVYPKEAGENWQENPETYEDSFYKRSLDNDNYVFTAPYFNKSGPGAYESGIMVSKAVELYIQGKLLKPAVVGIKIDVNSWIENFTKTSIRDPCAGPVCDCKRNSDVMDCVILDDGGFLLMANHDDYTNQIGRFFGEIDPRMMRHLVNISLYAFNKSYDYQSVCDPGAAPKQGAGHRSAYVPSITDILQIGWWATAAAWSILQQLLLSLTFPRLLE
T3 sequence (P54290 945-1091 partner limits assumed): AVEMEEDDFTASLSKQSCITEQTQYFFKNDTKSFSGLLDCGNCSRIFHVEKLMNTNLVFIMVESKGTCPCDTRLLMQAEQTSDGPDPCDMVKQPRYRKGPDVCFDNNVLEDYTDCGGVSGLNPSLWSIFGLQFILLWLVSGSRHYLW
T1 sequence (Q12809 whole entry): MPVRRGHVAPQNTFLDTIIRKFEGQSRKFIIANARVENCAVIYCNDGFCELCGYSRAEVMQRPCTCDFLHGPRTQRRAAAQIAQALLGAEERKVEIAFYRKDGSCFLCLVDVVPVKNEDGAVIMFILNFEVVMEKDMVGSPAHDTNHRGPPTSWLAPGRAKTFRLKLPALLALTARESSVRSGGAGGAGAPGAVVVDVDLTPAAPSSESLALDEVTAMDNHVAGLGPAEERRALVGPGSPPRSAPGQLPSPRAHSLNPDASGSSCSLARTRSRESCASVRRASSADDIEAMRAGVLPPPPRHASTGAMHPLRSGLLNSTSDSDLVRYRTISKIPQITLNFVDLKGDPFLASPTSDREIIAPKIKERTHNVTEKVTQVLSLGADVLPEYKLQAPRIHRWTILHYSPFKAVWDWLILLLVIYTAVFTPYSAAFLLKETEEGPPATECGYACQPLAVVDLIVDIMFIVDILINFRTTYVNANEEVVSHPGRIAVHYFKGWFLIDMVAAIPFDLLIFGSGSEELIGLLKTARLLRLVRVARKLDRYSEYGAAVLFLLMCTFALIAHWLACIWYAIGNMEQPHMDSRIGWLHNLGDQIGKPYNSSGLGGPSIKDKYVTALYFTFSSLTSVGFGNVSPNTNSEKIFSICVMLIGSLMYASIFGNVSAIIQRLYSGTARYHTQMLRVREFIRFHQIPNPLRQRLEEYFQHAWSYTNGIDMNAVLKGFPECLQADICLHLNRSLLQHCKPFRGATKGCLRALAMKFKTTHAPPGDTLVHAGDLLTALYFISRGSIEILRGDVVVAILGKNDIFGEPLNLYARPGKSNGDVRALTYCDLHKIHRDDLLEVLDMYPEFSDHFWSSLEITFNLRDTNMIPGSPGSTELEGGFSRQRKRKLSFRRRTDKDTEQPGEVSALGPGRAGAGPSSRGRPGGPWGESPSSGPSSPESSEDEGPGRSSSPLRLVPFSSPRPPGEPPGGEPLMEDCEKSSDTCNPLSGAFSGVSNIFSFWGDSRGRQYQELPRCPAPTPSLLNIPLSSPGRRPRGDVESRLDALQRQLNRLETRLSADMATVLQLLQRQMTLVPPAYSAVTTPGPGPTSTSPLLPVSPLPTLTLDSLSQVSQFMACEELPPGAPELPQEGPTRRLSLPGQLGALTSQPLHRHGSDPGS

SMILES | % Inhibition of Control Specific Binding, Potassium Channel (hERG) (Potassium channel (hERG)) | inhibition (Cav1.2 channel) | responders at 100 mg/kg (MES seizures, mice [1]; [11]) | responders at 100 mg/kg (MES seizures, mice [1]; [12]) | ED50 (MES seizures, mice [1]) | Rotarod test, number of mice / number of mice tested [2] | TD50 at 0.5 h [3] | inhibition (Cav2.2 channel) | % Inhibition of Control Specific Binding, Na+ Channel (Site 2) (Antagonist Radioligand) (Na+ channel (site 2)) | melting point | inhibition at 10 µM [4] | inhibition [5] | responders at 100 mg/kg [6] | binding to voltage-gated calcium channels Cav1.2 (Cav1.2 channel) | antagonist properties in cell-based flux studies (Cav1.2) [4] | ED50 [6] | also measured
O=C(NCc1ccccc1C(F)(F)F)C(c1ccccc1)N1C(=O)CCC1=O (stereo not shown) [Compound 21, 2-(2,5-Dioxopyrrolidin-1-yl)-2-phenyl-N-(2-(trifluoromethyl)benzyl)acetamide] | 6.3% | 26.6% | ≥ 50% | 50% | 49.6 mg/kg | 0/4 | > 300 mg/kg | 0.2% | 18.8% | 137.7 to 139.1 °C | 27% | 1.2% | 25% |  |  |  | impairment of motor coordination of mice [2]: did not impair motor coordination; effectiveness in the 6 Hz test ([6]; i.p.): not effective
O=C(NCc1cccc(OC(F)(F)F)c1)C(c1ccccc1)N1C(=O)CCC1=O (stereo not shown) [Compound 24, 2-(2,5-Dioxopyrrolidin-1-yl)-2-phenyl-N-(3-(trifluoromethoxy)benzyl)acetamide] | 4.4% | 36.5% | ≥ 50% | 75% | > 130 mg/kg | 0/4 | > 300 mg/kg | 5.5% | 22.3% | 129.6 to 130.4 °C | 38.8% | -0.8% | 100% | moderate binding | moderate antagonist properties | 43.8 mg/kg | CYP2C9 activity, % of control (CYP2C9; 10 and 25 µM): up to 140 % of control; effect on CYP3A4 activity (CYP3A4): slightly inhibited CYP3A4 activity; impairment of motor coordination of mice [2]: did not impair motor coordination; compound converted into metabolites / metabolized [7]: Less than 4%; parent compound remained in the reaction mixture [7]: 96.49%; Papp [8]: 10.9 ± 0.5 ×10⁻⁶ cm/s
O=C(NCCc1cccc(Cl)c1)C(c1ccccc1)N1C(=O)CCC1=O (stereo not shown) [Compound 27, N-(3-Chlorophenethyl)-2-(2,5-dioxopyrrolidin-1-yl)-2-phenylacetamide] | 2.7% | 38.3% |  | 50% |  | 0/4 | > 300 mg/kg | 3.8% | 20.1% | 137.4 to 138.2 °C | 40% | 0.7% | 75% | moderate binding | moderate antagonist properties | 36.3 mg/kg | 
O=C(NCCc1cccc(C(F)(F)F)c1)C(c1ccccc1)N1C(=O)CCC1=O (stereo not shown) [Compound 29, 2-(2,5-Dioxopyrrolidin-1-yl)-2-phenyl-N-(3-(trifluoromethyl)phenethyl)acetamide] | 3.4% | 44.2% | 100% | 75% | 55.4 mg/kg | 0/4 | 179 mg/kg | -0.6% | 18.3% | 149.2 to 150.4 °C | 45% | 2.1% | 75% | moderate binding | moderate antagonist properties | 49.3 mg/kg | 
CCC1(C)CC(=O)NC1=O (stereo not shown) [ETX, ethosuximide] |  |  |  |  |  |  |  |  |  |  |  |  |  |  |  |  | activity in the (sc)PTZ model (PTZ seizures, mice): protected mice only in the scPTZ model
COC[C@@H](NC(C)=O)C(=O)NCc1ccccc1 [LCS, lacosamide] |  |  |  |  |  |  |  |  |  |  |  |  |  |  |  |  | activity in the 6 Hz (32 mA) model [9]: active; activity in the MES model (MES seizures, mice [10]): active
CC[C@@H](C(N)=O)N1CCCC1=O [LEV, levetiracetam] |  |  |  |  |  |  |  |  |  |  |  |  |  |  |  |  | activity in the 6 Hz (32 mA) model [9]: showed efficacy only in the 6 Hz seizure model
Nc1nnc(-c2cccc(Cl)c2Cl)c(N)n1 [LTG, lamotrigine, reference compound] |  |  |  |  | 3.1 mg/kg |  |  |  |  |  |  |  |  |  |  | 6.4 mg/kg | TD50 at 0.5 h (in vivo): 48.3 mg/kg
CCn1cc(C(=O)O)c(=O)c2cc(F)c(N3CCNCC3)cc21 [NFX, norfloxacin] |  |  |  |  |  |  |  |  |  |  |  |  |  |  |  |  | Papp (in vitro): 0.056 ×10⁻⁶ cm/s
Nc1ccc(S(=O)(=O)Nc2ccnn2-c2ccccc2)cc1 [SE, sulfaphenazole, reference compound] |  |  |  |  |  |  |  |  |  |  |  |  |  |  |  |  | effect on CYP2C9 activity (CYP2C9; 1 µM): almost completely blocked CYP2C9 activity
